Test results taken from US20250032411A1, “A SELF-EMULSIFYING DRUG DELIVERY SYSTEM (SEDDS) OF PUNICIC ACID COMBINED WITH NEUROPROTECTIVE NATURAL PRODUCTS TO DELAY ONSET, PREVENT, OR REVERSE NEURODEGENERATIVE DISEASE” (TAHIRO INC., priority 2021, published 2025).

Key:
C57BL6 mice = assay: Y-maze Test of MK-801 induced cognitive decline; format: in vivo; settings: N=12 per group, random = 33%
Experimental: The effect of pomegranate-CBD based formulation with a 12:1 pomegranate to CBD ratio on cognitive decline was further evaluated in C57BL6 mice. The cognitive decline of the mice was achieved using MK-801 and the cognitive ability of the mice were tested using the Y-maze Test. The experiment included three groups of mice, neutral control (N=12), MK-801 (N=12), MK-801 Pomegranate-CBD treated (N=12).

[1] = system: Drosophila model of Parkinson's Disease; settings: fly feeding, 75 mM in medium; cited from earlier work
[2] = system: mThyl-human alpha-synuclein transgenic mouse model; settings: 1 g/kg/day interperitoneally; cited from earlier work
[3] = system: Parkinson's disease patients; settings: 18 g per day oral, cited from earlier work
alfa-synuclein = alfa-synuclein (Homo sapiens, UniProt P37840); settings: in vitro; cited from earlier work
old mice = settings: chronic low dose, 3 mg per kg bodyweight per day; cited from earlier work

C[C@]12N[C@H](Cc3ccccc31)c1ccccc12 [MK-801]
% of entries in the novel arm of the Y-maze (C57BL6 mice): 31.8%

OC[C@@H](O)[C@@H](O)[C@H](O)[C@H](O)CO [Mannitol]
alpha-synuclein aggregates in the brains [1]: reduced the amount of alpha-synuclein aggregates | behavioral defects [1]: dramatically corrected behavioral defects | alpha-synuclein accumulation in brain regions [2]: a decrease in alpha-synuclein accumulation was detected in several brain regions | patients who tolerate the maximal dose ([3]; 36 weeks): only two thirds of patients tolerate this maximal dose | safety of long-term use [3]: safe | aggregation process of alfa-synuclein (alfa-synuclein): interfere with the aggregation process of alfa-synuclein

CCCCCc1cc(O)c2c(c1)OC(C)(C)[C@@H]1CCC(C)=C[C@@H]21 [THC, Δ9-tetrahydrocannabinol]
cognitive function (old mice): restores cognitive function in old mice
